The subject of data set [1] is human breast cancer cell line (MDA-MB-231). As to the kind of experiment: MTT cytotoxic assay, MDA-MB-231. The following applies: MDA-MB-231, MTT, 48 h exposure, read-out: IC50 MDA-MB-231. It counts as cell-based. On the procedure: (§1) The in vitro antiproliferative activity of DAA derivatives (1–5, 6a–k, 7a–k) were evaluated by MTT assay against human hepatocarcinoma cell line (SMMC-7721), human breast cancer cell line (MDA-MB-231), human cervical carcinoma cell line (HeLa), mouse colon cancer cell line (CT-26) and human normal hepatocyte cell line (QSG-7701). Nocodazole was co-assayed as the positive control and DMEM culture medium containing 0.1% DMSO was used as negative control. The results of the tested compounds expressed as IC50 values (concentration required to inhibit tumor cell proliferation by 50%) were presented in Table 1.
(§2) The human hepatocarcinoma cell line (SMMC-7721), human breast cancer cell line (MDA-MB-231), human cervical carcinoma cell line (HeLa), mouse colon cancer cell line (CT-26) and human normal hepatocyte cells (QSG-7701) used in this study were all obtained from Keygene Biotech., China. These cell lines were maintained in DMEM medium supplemented with 10% heat-inactivated fetal bovine serum in a humidified atmosphere of 5% CO2 at 37 °C.
(§3) The in vitro cytotoxic activities of the benzimidazole derivatives of dehydroabietic acid were evaluated against tested cell lines via the MTT colorimetric method. Briefly, different tumor cells were grown in DMEM medium supplemented with 10% fetal bovine serum, penicillin (100 U mL^−1), and streptomycin (50 μg mL^−1). Cells were harvested at log phase of growth and seeded in 96-well plates (100 μL per well at a density of 2 × 10^5 cells mL^−1). After 24 h incubation at 37 °C and 5% CO2 to allow cell attachment, cultures were exposed to various concentrations of the isolated compounds for 48 h. Finally, MTT solution (2.5 mg mL^−1 in PBS) was added (40 μL per well). Plates were further incubated for 4 h at 37 °C, and the formazan crystals formed were dissolved by adding 150 μL per well of DMSO. Absorption at 570 nm was measured with an ELISA plate reader. The results were expressed as IC50 values with standard deviations, which was defined as the concentration at which 50% survival of cells was discerned. Nocodazole was co-assayed as positive control.

The subject of data set [2] is mouse colon cancer cell line (CT-26). As to the kind of experiment: MTT cytotoxic assay, CT-26. In kind it is cell-based. Particulars: MTT, 48 h exposure, read-out: IC50 CT-26. The procedure:
as §1, §2, §3
On the technique in general: Tetrazolium dyes change colour on reduction, which living cells bring about.

Data set [3] has as its system human cervical carcinoma cell line (HeLa). As to the kind of experiment: MTT cytotoxic assay, HeLa. In kind it is cell-based. Particulars: MTT, 48 h exposure, read-out: IC50 HeLa. The procedure:
as §1, §2, §3

Data set [4] deals with human hepatocarcinoma cell line (SMMC-7721). As to the kind of experiment: MTT cytotoxic assay, SMMC-7721. It counts as cell-based. Particulars: MTT, 48 h exposure, read-out: IC50 SMMC-7721. The procedure: as §1, §2, §3
The test system of data set [5] is human normal hepatocyte cell line (QSG-7701). As to the kind of experiment: MTT cytotoxic assay, QSG-7701. It counts as cell-based. Particulars: QSG7701, 48 h exposure. On the procedure:
as §1, §2, §3

The next data set concerns the target T1, Porcine brain tubulin (Sus scrofa, UniProt P02550+P02554).
T1 construct: purchased Cytoskeleton, Inc. BK004P; host or cells: porcine brain tissue
As to the kind of experiment: In vitro tubulin polymerization inhibition assay (OD340). It counts as biochemical. Particulars: 10 μM, 37 °C, 1 h, versus blank control. On the procedure:
The in vitro tubulin polymerization inhibition assay was carried out by using the Tubulin Polymerization Assay Kit (Cytoskeleton, Inc., USA) according to the protocol in the manual. Porcine brain tubulin was incubated with compound 6j at concentrations of 5 and 10 μM. The positive control colchicine and negative control taxol were co-assayed at the concentration of 10 μM, and G-PEM buffer was used as the blank control.
The tubulin polymerization assay was accomplished using a commercial assay kit (cat. #BK004P) purchased from Cytoskeleton, Inc. (Danvers, MA, USA). Tubulin isolated from porcine brain tissue was used in this tubulin polymerization assay kit. Tubulin polymerizations are followed by an increase in optical density at 340 nm (OD340) over a 60 min period at 37 °C due to the light scattered by microtubule polymer. At first, tubulin (4 mg) was disovled in 1 mL of G-PEM buffer containing 80 mM piperazine-N,N′-bis(2-ethanesulfonic acid) sequisodium salt (PIPES, pH 6.9), 2.0 mM MgCl2, 0.5 mM EGTA and 1 mM GTP to prepare tubulin solution. Subsequently, 10 μL of 10 × stock solutions of the tested compounds at different concentrations were added to a prewarmed 96-well plate and incubated at 37 °C for 2 min, then 90 μL of tubulin solution was also added into each well to initiate the reaction. The optical intensity (OD340) of each well was recorded every 60 s for 60 min (Cytation 3 Cell Imaging Multi-Mode Reader, BioTek Instruments, Inc., USA). Colchicine and taxol were co-assayed as the positive control and negative control, respectively. G-PEM buffer was used as the blank control.

Molecules are shown by their SMILES. Like-named read-outs stand apart in the source and are kept apart here.

T1 sequence (P02554 whole entry): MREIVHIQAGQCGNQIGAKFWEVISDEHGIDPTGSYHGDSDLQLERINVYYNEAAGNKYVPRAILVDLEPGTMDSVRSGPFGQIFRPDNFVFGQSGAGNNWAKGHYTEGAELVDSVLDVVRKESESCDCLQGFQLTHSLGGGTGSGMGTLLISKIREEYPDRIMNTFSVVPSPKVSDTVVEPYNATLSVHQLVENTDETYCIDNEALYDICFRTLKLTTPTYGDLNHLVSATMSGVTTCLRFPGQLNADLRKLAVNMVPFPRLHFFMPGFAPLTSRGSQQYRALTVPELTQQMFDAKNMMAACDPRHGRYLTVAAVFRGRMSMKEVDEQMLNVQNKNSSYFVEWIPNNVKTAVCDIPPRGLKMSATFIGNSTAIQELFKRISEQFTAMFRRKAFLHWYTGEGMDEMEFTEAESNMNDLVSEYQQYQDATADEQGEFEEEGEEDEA
T1 sequence (P02550 whole entry): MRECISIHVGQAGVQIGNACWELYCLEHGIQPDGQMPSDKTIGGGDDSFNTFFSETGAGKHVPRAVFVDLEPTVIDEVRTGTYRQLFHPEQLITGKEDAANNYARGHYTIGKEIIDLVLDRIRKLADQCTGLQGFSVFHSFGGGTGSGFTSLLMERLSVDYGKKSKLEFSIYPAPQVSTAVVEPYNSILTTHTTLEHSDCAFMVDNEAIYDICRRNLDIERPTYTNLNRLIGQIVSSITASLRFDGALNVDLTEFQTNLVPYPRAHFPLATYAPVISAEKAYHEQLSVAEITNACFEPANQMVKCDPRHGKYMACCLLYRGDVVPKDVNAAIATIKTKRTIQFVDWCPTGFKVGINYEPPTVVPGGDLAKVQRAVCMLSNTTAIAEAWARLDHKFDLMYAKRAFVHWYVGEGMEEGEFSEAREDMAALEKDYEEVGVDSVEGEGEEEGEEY

Take `COC(=O)[C@]1(C)CCC[C@]2(C)c3cc(Br)c4nc(-c5ccccc5)[nH]c4c3CCC12` (stereo partly shown) [Compound 6a, Methyl 2′-phenyl-12-bromo-13,14-imidazolyl-deisopropyl-dehydroabietate]: the melting point (in general, the temperature, or range, at which the solid turns liquid) was in the range of 123 to 125 °C. Moreover, the concentration for half-maximal inhibition (IC50) (commonly the point on the concentration scale where inhibition reaches its midpoint) in data set [1] amounted to 41.7 ± 2.06 µM. The IC50 in data set [2] (Mus musculus, CT26, 48 h) is 6.34 ± 0.83 µM. Also, the IC50 in data set [3] is 16.2 ± 1.73 µM. Also, in data set [4] (Homo sapiens, SMMC-7721, 48 h), the half-inhibitory concentration (IC50) was found to be 12.5 ± 0.45 µM. This compound had an IC50 in data set [5] above 50 µM.

`COC(=O)[C@]1(C)CCC[C@]2(C)c3cc(Br)c4nc(-c5ccc(F)cc5)[nH]c4c3CCC12` (stereo partly shown) [Compound 6c, Methyl 2′-(4-fluorophenyl)-12-bromo-13,14-imidazolyl-deisopropyl-dehydroabietate] returned a melting point of 149 to 151 °C. Besides, in data set [1], the IC50 turned out to be 18.2 ± 1.2 µM. Moreover, in data set [2], the concentration for half-maximal inhibition (IC50) was 2.82 ± 0.97 µM. Moreover, the IC50 in data set [2] (Mus musculus, CT26, 48 h) is below 5 µM. In addition, the half-maximal inhibitory concentration (IC50) in data set [3] was 8.01 ± 0.76 µM. The same compound showed a half-maximal inhibitory concentration (IC50) in data set [5] above 50 µM.

`COC(=O)[C@]1(C)CCC[C@]2(C)c3cc(Br)c4nc(-c5cccc(F)c5)[nH]c4c3CCC12` (stereo partly shown) [Compound 6d, Methyl 2′-(3-fluorophenyl)-12-bromo-13,14-imidazolyl-deisopropyl-dehydroabietate] returned a melting point of 142 to 144 °C. For the same compound, the half-maximal inhibitory concentration (IC50) in data set [1] is 12 ± 1.31 µM. For the same compound, in data set [2], the IC50 worked out at 3.39 ± 0.33 µM. For the same compound, the IC50 in data set [2] (Mus musculus, CT26, 48 h) was below 5 µM. In addition, in data set [3], the IC50 is 17.7 ± 3.02 µM. For the same compound, the 50% inhibitory concentration (IC50) in data set [4] (Homo sapiens, SMMC-7721, 48 h) is below 5 µM. In addition, the IC50 in data set [4] stood at 5.27 ± 0.27 µM. For the same compound, the half-maximal inhibitory concentration (IC50) in data set [5] was above 50 µM.

With `COC(=O)[C@]1(C)CCC[C@]2(C)c3cc(-c4cc(OC)c(OC)c(OC)c4)c4nc(-c5ccccc5)[nH]c4c3CCC12` (stereo partly shown) [Compound 7a, Methyl 2′-phenyl-12-(3,4,5-trimethoxyphenyl)-13,14-imidazolyl-deisopropyl-dehydroabietate], the melting point lay in the range of 153 to 155 °C. In addition, in data set [1], the 50% inhibitory concentration (IC50) is above 50 µM. Also, the half-inhibitory concentration (IC50) in data set [2] (Mus musculus, CT26, 48 h) is 8.25 ± 0.5 µM. Besides, the 50% inhibitory concentration (IC50) in data set [3] came out at 13.1 ± 1.7 µM. Also, the concentration for half-maximal inhibition (IC50) in data set [4] (Homo sapiens, SMMC-7721, 48 h) turned out to be 9.38 ± 1.02 µM. In data set [5], the IC50 is above 50 µM.

For `COC(=O)[C@]1(C)CCC[C@]2(C)c3cc(-c4cc(OC)c(OC)c(OC)c4)c4nc(-c5ccc(F)cc5)[nH]c4c3CCC12` (stereo partly shown) [Compound 7c, Methyl 2′-(4-fluorophenyl)-12-(3,4,5-trimethoxyphenyl)-13,14-imidazolyl-deisopropyl-dehydroabietate], the melting point fell in the range of 139 to 141 °C. In addition, the half-inhibitory concentration (IC50) in data set [1] turned out to be 0.69 ± 0.21 µM. Moreover, the IC50 in data set [2] (Mus musculus, CT26, 48 h) was determined as 8.95 ± 0.17 µM. The half-maximal inhibitory concentration (IC50) in data set [3] was 7.63 ± 1.03 µM. In addition, in data set [4] (Homo sapiens, SMMC-7721, 48 h), the IC50 is below 5 µM. Further, the half-maximal inhibitory concentration (IC50) in data set [4] is 3.29 ± 0.13 µM. In data set [5], this compound showed a 50% inhibitory concentration (IC50) of 36.1 ± 2.32 µM.

Consider `COC(=O)[C@]1(C)CCC[C@]2(C)c3cc(-c4cc(OC)c(OC)c(OC)c4)c4nc(-c5cccc(F)c5)[nH]c4c3CCC12` (stereo partly shown) [Compound 7d, Methyl 2′-(3-fluorophenyl)-12-(3,4,5-trimethoxyphenyl)-13,14-imidazolyl-deisopropyl-dehydroabietate], for which the melting point was in the range of 156 to 158 °C. Further, in data set [1], the 50% inhibitory concentration (IC50) was 6.42 ± 0.04 µM. The IC50 in data set [2] is 2.7 ± 0.12 µM. Besides, the IC50 in data set [2] (Mus musculus, CT26, 48 h) is below 5 µM. For the same compound, the IC50 in data set [3] was found to be 12.9 ± 1.26 µM. Besides, the IC50 in data set [4] (Homo sapiens, SMMC-7721, 48 h) was above 50 µM. In addition, the IC50 in data set [5] is above 50 µM.

Take `COC(=O)[C@]1(C)CCC[C@]2(C)c3cc(-c4cc(OC)c(OC)c(OC)c4)c4nc(-c5ccc(Cl)cc5)[nH]c4c3CCC12` (stereo partly shown) [Compound 7f, Methyl 2′-(4-chlorophenyl)-12-(3,4,5-trimethoxyphenyl)-13,14-imidazolyl-deisopropyl-dehydroabietate]: the melting point was in the range of 168 to 170 °C. Further, the half-maximal inhibitory concentration (IC50) in data set [1] was 10.1 ± 1.38 µM. The IC50 in data set [2] was determined as 3.44 ± 0.75 µM. For the same compound, in data set [2] (Mus musculus, CT26, 48 h), the IC50 is below 5 µM. Moreover, in data set [3], the IC50 was found to be 17.2 ± 2.32 µM. In addition, the half-inhibitory concentration (IC50) in data set [4] (Homo sapiens, SMMC-7721, 48 h) was found to be 11 ± 2.68 µM. Moreover, the IC50 in data set [5] was above 50 µM.

With `COC(=O)[C@]1(C)CCC[C@]2(C)c3cc(-c4cc(OC)c(OC)c(OC)c4)c4nc(-c5ccc(Br)cc5)[nH]c4c3CCC12` (stereo partly shown) [Compound 7h, Methyl 2′-(4-bromophenyl)-12-(3,4,5-trimethoxyphenyl)-13,14-imidazolyl-deisopropyl-dehydroabietate], the melting point was 150 to 152 °C. Moreover, the IC50 in data set [1] came out at 8.84 ± 1.08 µM. Besides, the half-maximal inhibitory concentration (IC50) in data set [2] was determined as 2.76 ± 0.26 µM. In addition, in data set [2] (Mus musculus, CT26, 48 h), the half-inhibitory concentration (IC50) is below 5 µM. Further, the IC50 in data set [3] was found to be 29.9 ± 3.07 µM. The 50% inhibitory concentration (IC50) in data set [4] (Homo sapiens, SMMC-7721, 48 h) was above 50 µM. In data set [5], this compound gave a 50% inhibitory concentration (IC50) above 50 µM.

Take `CC(=O)O[C@H]1C(=O)[C@@]2(C)[C@H]([C@H](OC(=O)c3ccccc3)[C@]3(O)C[C@H](OC(=O)[C@H](O)[C@@H](NC(=O)c4ccccc4)c4ccccc4)C(C)=C1C3(C)C)[C@]1(OC(C)=O)CO[C@@H]1C[C@@H]2O` [taxol, reference compound]: the “effect on tubulin polymerization speed and final absorbance (OD340)” value at Porcine brain tubulin is “obviously increased the speed of tubulin polymerization and the final absorbance”.

These data come from paper PMC9080489, “Synthesis and biological evaluation of 2-aryl-benzimidazole derivatives of dehydroabietic acid as novel tubulin polymerization inhibitors” (RSC Advances, 2018).
